Measured values published in PMC7397269, “Synthesis and Evaluation of New Coumarin Derivatives as Antioxidant, Antimicrobial, and Anti-Inflammatory Agents” (Molecules, 2020).
Converted amounts (≈) assume the structure as drawn. Where two headings read alike, the source gives them in different places.

What was measured:
[1] = system: Bacillus subtilis ATCC 6633; assay: Agar well diffusion, B. subtilis; type: cell-based; conditions: ATCC6633, 100 μL of 10 mg/mL in DMSO, read-out: diameter of inhibition zone, BS
In short: (§1)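 Read-out: inhibition zone diameter in mm, mean of triplicate runs. Compound solution (10 mg/mL in DMSO, 100 μL) was loaded into 10 mm wells cut in seeded NA (bacteria, 1 × 10^8 CFU/mL) or SDA (yeast, 1 × 10^6 CFU/mL), then incubated 24 h at 37 °C.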

[2] = system: Bacillus megaterium ATCC 9885; assay: Agar well diffusion, B. megaterium; type: cell-based; conditions: Priestia megaterium, ATCC9885, 100 μL of 10 mg/mL in DMSO, read-out: diameter of inhibition zone, BM
In short: as §1

[3] = system: tested microorganisms; assay: MIC, summary over the tested microorganisms; type: cell-based; conditions: two-fold serial dilution
Source text: The new molecules were individually tested for their antimicrobial activity in vitro against standard bacteria strains from the American Type Culture Collection (ATCC), namely, Staphylococcus aureus ATCC 29213, Bacillus subtilis ATCC 6633, Bacillus megaterium ATCC 9885 (Gram-positive), Escherichia coli ATCC 2592, and Pseudomonas aeruginosa ATCC 27,953 (Gram-negative). The compounds were also microbiologically tested against locally isolated Saccharomyces cerevisiae (yeast) and the standard Agricultural Research Service Culture Collection (NRRL) strain of the yeast-like pathogenic fungus Candida albicans NRRL Y-477. Primary screening was conducted using the agar well diffusion method using nutrient agar (NA) medium and Sabourand dextrose agar (SDA) medium for the tested pathological bacteria and yeast, respectively. […].
The bacteriostatic activity of the active compounds (having IZ > 16 mm) was then evaluated using the two-fold serial dilution technique. Two-fold serial dilutions of the tested compounds solutions were prepared using the proper nutrient broth to reach final concentrations of 1000, 500, 250, and 125 μg/mL. The tubes were then inoculated with the test microorganisms grown in their suitable broth at 37 °C for 24 h (1 × 10^8 CFU/mL for bacteria and 1 × 10^6 CFU/mL of yeast), 0.1 mL of the above inoculum was administered per 5 mL, and the tubes were incubated at 37 °C for 24 h. The lowest concentration showing no growth was taken as the MIC.

[4] = system: Escherichia coli ATCC 2592; assay: Agar well diffusion, E. coli; type: cell-based; conditions: ATCC2592, 100 μL of 10 mg/mL in DMSO, read-out: diameter of inhibition zone, EC
In short: as §1

[5] = system: Saccharomyces cerevisiae local isolate; assay: MIC, two-fold serial dilution, S. cerevisiae; type: cell-based; conditions: read-out: Minimum inhibitory concentration, SC
In short: (§2)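 Broth tube dilution, two-fold, final 1000–125 μg/mL; inoculum 1 × 10^8 CFU/mL bacteria, 1 × 10^6 CFU/mL yeast (0.1 mL/5 mL); 37 °C, 24 h; MIC read as lowest conc. with no visible growth. Only agar-diffusion actives (IZ > 16 mm) tested.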

[6] = system: Saccharomyces cerevisiae local isolate; assay: Agar well diffusion, S. cerevisiae; type: cell-based; conditions: read-out: diameter of inhibition zone, SC
In short: as §1

[7] = system: Bacillus subtilis ATCC 6633; assay: MIC, two-fold serial dilution, B. subtilis; type: cell-based; conditions: ATCC6633, read-out: Minimum inhibitory concentration, BS
In short: as §2

[8] = system: Escherichia coli ATCC 2592; assay: MIC, two-fold serial dilution, E. coli; type: cell-based; conditions: ATCC2592, read-out: Minimum inhibitory concentration, EC
In short: as §2

[9] = DPPH antioxidant assay (radical scavenging); type: biochemical; conditions: mean ± SD (n = 3)
In short: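 Compounds, starting at 200 μg/mL, were mixed with 0.2 mM methanolic DPPH and incubated 30 min in the dark at 25 °C; absorbance was read at 515 nm. % inhibition is background-corrected against DPPH-only control, with IC50 from curve fit. Runs were triplicate (mean ± SD), with ascorbic acid as positive control.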

[10] = system: formaldehyde-induced rat paw oedema; assay: Formaldehyde-induced rat paw oedema (prophylactic); type: in vivo; conditions: 2.5 mg/kg orally, 1 h after inducing inflammation
[11] = read-out: MIC against Gram-positive bacteria
[12] = two-fold serial dilution, S. cerevisiae
[13] = well diffusion, 100 μL of 10 mg/mL in DMSO, S. cerevisiae
[14] = read-out: MIC against one or more tested microorganisms

Row | MIC [5, 12] [µg/mL] | Compound | zone of inhibition at 10000 µg/mL [1] [mm] | zone of inhibition at 10000 µg/mL [2] [mm] | MIC [3, 11] [µg/mL] | zone of inhibition at 10000 µg/mL [4] [mm] | MIC [5] [µg/mL] | zone of inhibition at 10000 µg/mL [6] [mm] | MIC [7] [µg/mL] | MIC [8] [µg/mL] | IC50 [9] | zone of inhibition at 10000 µg/mL [6, 13] [mm] | % inhibition of paw oedema [10] [%] | MIC [3, 14] [µg/mL] | MIC ([3]; read-out: MIC against all microorganisms) [µg/mL]
1 |  | Cc1ccc2oc(=O)c3c(c2c1)OC(N)=C(C#N)C3c1ccc([N+](=O)[O-])cc1 (racemic) [2a, (±)-2-Amino-9-methyl-4-(4-nitrophenyl)-5-oxo-4H,5H-pyrano[3,2-c]chromene-3-carbonitrile] | 22 | 25 | 500 to 1000 (≈ 1330 to 2660 µM) | 18 | 500 (≈ 1330 µM) | 25 | 500 (≈ 1330 µM) | 1000 (≈ 2660 µM) | — ((—): inactive (IC50 > 200 μg/mL)) |  |  |  | 
2 | 1000 (≈ 3020 µM) | Cc1ccc2oc(=O)c(S(=O)(=O)Nc3ccccc3)c(O)c2c1 [8b, 4-Hydroxy-6-methyl-2-oxo-N-phenyl-2H-chromene-3-sulfonamide] | 19 | 24 |  | 18 |  |  | 1000 (≈ 3020 µM) | 1000 (≈ 3020 µM) | 19.25 ± 4.171 µg/mL (≈ 58.1 µM) | 19 |  |  | 
3 | 250 (≈ 580 µM) | NS(=O)(=O)c1ccc(NS(=O)(=O)c2c(O)c3cc(Cl)ccc3oc2=O)cc1 [7a, 6-Chloro-4-hydroxy-2-oxo-N-(4-sulfamoylphenyl)-2H-chromene-3-sulfonamide] | 29 | 25 |  | 28 |  |  | 250 (≈ 580 µM) | 250 (≈ 580 µM) | 93.12 ± 0.727 µg/mL (≈ 216 µM) | 26 |  |  | 
4 |  | Cc1ccc2oc(=O)c3c(c2c1)OC(/N=C/c1ccc(Cl)cc1Cl)=C(C#N)C3c1ccco1 (racemic) [5f, (±)-2-((2,4-dichlorobenzylidene)amino)-4-(furan-2-yl)-9-methyl-5-oxo-4H,5H-pyrano[3,2-c]chromene-3-carbonitrile] | 23 | 20 | 500 to 1000 (≈ 1050 to 2100 µM) | 20 | 500 (≈ 1050 µM) | 24 | 500 (≈ 1050 µM) | 1000 (≈ 2100 µM) | — ((—): inactive (IC50 > 200 μg/mL)) |  |  |  | 
5 | 250 (≈ 711 µM) | O=c1oc2ccc(Cl)cc2c(O)c1S(=O)(=O)Nc1ccccc1 [8a, 6-Chloro-4-hydroxy-2-oxo-N-phenyl-2H-chromene-3-sulfonamide] | 28 | 29 |  | 25 |  |  | 250 (≈ 711 µM) | 500 (≈ 1420 µM) | 14.51 ± 1.827 µg/mL (≈ 41.2 µM) | 28 |  |  | 
6 |  | Cc1ccc2oc(=O)c3c(c2c1)OC(N)=C(C#N)C3c1ccco1 (racemic) [2b, (±)-2-Amino-4-(furan-2-yl)-9-methyl-5-oxo-4H,5H-pyrano[3,2-c]chromene-3-carbonitrile] | 23 | 25 | 500 to 1000 (≈ 1560 to 3120 µM) | 18 | 500 (≈ 1560 µM) | 27 | 500 (≈ 1560 µM) | 1000 (≈ 3120 µM) | — ((—): inactive (IC50 > 200 μg/mL)) |  | 6.57 |  | 
7 | 250 (≈ 507 µM) | Cc1ccc2oc(=O)c(S(=O)(=O)Nc3ccc(S(=O)(=O)Nc4nccs4)cc3)c(O)c2c1 [7f, 4-Hydroxy-6-methyl-2-oxo-N-(4-(N-(thiazol-2-yl)sulfamoyl)phenyl)-2H-chromene-3-sulfonamide] | 27 | 27 |  | 23 |  |  | 250 (≈ 507 µM) | 500 (≈ 1010 µM) | 83.52 ± 1.849 µg/mL (≈ 169 µM) | 26 | 17.18 |  | 
8 | 1000 (≈ 1950 µM) | O=c1oc2ccc(Cl)cc2c(O)c1S(=O)(=O)Nc1ccc(S(=O)(=O)Nc2nccs2)cc1 [7e, 6-Chloro-4-hydroxy-2-oxo-N-(4-(N-(thiazol-2-yl)sulfamoyl)phenyl)-2H-chromene-3-sulfonamide] | 25 | 25 |  | 20 |  |  | 500 (≈ 973 µM) | 500 (≈ 973 µM) | 71.67 ± 3.231 µg/mL (≈ 139 µM) | 20 |  |  | 
9 |  | COc1cc(/C=N/C2=C(C#N)C(c3ccc([N+](=O)[O-])cc3)c3c(c4cc(C)ccc4oc3=O)O2)cc(OC)c1OC (racemic) [5c, (±)-9-methyl-4-(4-nitrophenyl)-5-oxo-2-((3,4,5-trimethoxybenzylidene)amino)-4H,5H-pyrano[3,2-c]chromene-3-carbonitrile] | 23 | 24 |  | 24 | 500 (≈ 903 µM) | 27 | 500 (≈ 903 µM) | 500 (≈ 903 µM) | — ((—): inactive (IC50 > 200 μg/mL)) |  |  |  | 

Row | Compound | MIC [5, 12] [µg/mL] | zone of inhibition at 10000 µg/mL [1] [mm] | zone of inhibition at 10000 µg/mL [2] [mm] | MIC [3, 11] [µg/mL] | zone of inhibition at 10000 µg/mL [4] [mm] | MIC [5] [µg/mL] | zone of inhibition at 10000 µg/mL [6] [mm] | MIC [7] [µg/mL] | MIC [8] [µg/mL] | IC50 [9] | zone of inhibition at 10000 µg/mL [6, 13] [mm] | % inhibition of paw oedema [10] [%] | MIC [3, 14] [µg/mL] | MIC ([3]; read-out: MIC against all microorganisms) [µg/mL]
10 | O=c1oc2ccc(Cl)cc2c(O)c1S(=O)(=O)Nc1ccc(O)cc1 [8c, 6-Chloro-4-hydroxy-N-(4-hydroxyphenyl)-2-oxo-2H-chromene-3-sulfonamide] | 125 (≈ 340 µM) | 29 | 28 |  | 27 |  |  | 125 (≈ 340 µM) | 250 (≈ 680 µM) | 3.87 ± 0.409 µg/mL (≈ 10.5 µM) | 31 to 32 | 9.45 | 125 (≈ 340 µM) | 
11 | Cc1ccc2oc(=O)c(S(=O)(=O)Nc3ccc(O)cc3)c(O)c2c1 [8d, 4-Hydroxy-N-(4-hydroxyphenyl)-6-methyl-2-oxo-2H-chromene-3-sulfonamide] | 125 (≈ 360 µM) | 29 | 29 |  | 31 |  |  | 125 (≈ 360 µM) | 125 (≈ 360 µM) | 4.30 ± 0.531 µg/mL (≈ 12.4 µM) | 31 to 32 |  | 125 (≈ 360 µM) | 
12 | Cc1ccc2oc(=O)c(S(=O)(=O)Nc3ccc(S(=O)(=O)Nc4ncccn4)cc3)c(O)c2c1 [7d, 4-Hydroxy-6-methyl-2-oxo-N-(4-(N-(pyrimidin-2-yl)sulfamoyl)phenyl)-2H-chromene-3-sulfonamide] | 125 (≈ 256 µM) | 31 | 30 |  | 28 |  |  | 125 (≈ 256 µM) | 125 (≈ 256 µM) | 112.19 ± 4.391 µg/mL (≈ 230 µM) | 31 to 32 |  | 125 (≈ 256 µM) | 125 (≈ 256 µM)
13 | O=c1oc2ccc(Cl)cc2c(O)c1S(=O)(=O)Nc1ccc(S(=O)(=O)Nc2ncccn2)cc1 [7c, 6-Chloro-4-hydroxy-2-oxo-N-(4-(N-(pyrimidin-2-yl)sulfamoyl)phenyl)-2H-chromene-3-sulfonamide] | 125 (≈ 246 µM) | 31 | 30 |  | 30 |  |  | 125 (≈ 246 µM) | 125 (≈ 246 µM) | 120.12 ± 4.629 µg/mL (≈ 236 µM) | 31 to 32 |  | 125 (≈ 246 µM) | 
